In patent publication US9827312B2, “Method for carrying therapeutic substances into cells” (MAGFORCE AG, priority 2005, dated 2017):

What was measured:
Conditions in all cases: procedure of example 2
[1] = tested on: glioblastoma human cell line RUSIRS1; assay: Increase in the activity of cytostatics with nanoparticles (Table 1), RUSIRS1; assay type: cell-based
Method: (§1) The experiments in vitro were carried out with the cell lines BT20 (breast carcinoma) and WiDr (colon carcinoma). The tumor cells were taken from tumor tissue of a patient and cultivated as described in DE 199 12 798 C1. 2×10^6 cells, respectively, were prepared in a 75 cm^3 cell culture bottle with 25 ml of cell culture medium (RPMI+10% FBS+1.2 ml of pyruvate for WiDr cells, or respectively BME+10% FBS+pyruvate+5 ml of non-essential amino acids+5 ml glutamine for BT20 cells) for testing the efficacy of the cefamandole/nanoparticle mixture. 136 μl of magnetic fluid MFL AS M01 (iron oxide nanoparticle coated with polycondensed N-(2-aminoethyl)-3-(trimethoxysilyl)propylamine, manufacturer: MagForce Nanotechnologies GmbH, Berlin, Germany) (cFe=2 mol/l) and 390 μl of cefamandole solution (stock solution 1 mg/ml in 0.9% NaCl) were added to said cell suspension.
(§2) Corresponding to the experiment procedure according to example 2, the following […] were tested in vitro with the active ingredients listed in table 1: a) glioblastoma human cell line RUSIRS 1; b) breast carcinoma cell lines BT20; c) colon carcinoma cell line WiDR; d) bronchial carcinoma cells NSCLC, e) rectal carcinoma cells and f) prostate carcinoma cell line DU 145.
(§3) In all cases, an increased activity of the cytostatic could be observed. The increase in activity is indicated in parentheses after the respective cytostatic, wherein (+) means an increase of about 5% to 80% and (++) means an increase of 80% to 500%.

[2] = tested on: breast carcinoma cell lines BT20; assay: Increase in the activity of cytostatics with nanoparticles (Table 1), BT20; assay type: cell-based, human
Method: as §1, §2, §3

[3] = tested on: colon carcinoma cell line WiDr; assay: Increase in the activity of cytostatics with nanoparticles (Table 1), WiDr; assay type: cell-based, human
Method: as §1, §2, §3

[4] = tested on: bronchial carcinoma cells NSCLC; assay: Increase in the activity of cytostatics with nanoparticles (Table 1), NSCLC; assay type: cell-based
Method: as §1, §2, §3

rectal carcinoma cells = assay: Increase in the activity of cytostatics with nanoparticles (Table 1), rectal carcinoma; assay type: cell-based
Method: as §1, §2, §3

[5] = tested on: prostate carcinoma cell line DU 145; assay: Increase in the activity of cytostatics with nanoparticles (Table 1), DU 145; assay type: cell-based
Method: as §1, §2, §3

neuroglioma cell line H4 = assay: Increase in the activity of cytostatics with nanoparticles (Table 1), H4; assay type: cell-based
Method: as §1, §2, §3

## Nc1nc2c(ncn2COCCO)c(=O)[nH]1 [acyclovir]
[1]
  increase in the activity of cytostatics: (+) ((+) means an increase of about 5% to 80%)
[2]
  increase in the activity of cytostatics: (+) ((+) means an increase of about 5% to 80%)
[3]
  increase in the activity of cytostatics: (+) ((+) means an increase of about 5% to 80%)
[4]
  increase in the activity of cytostatics: (+) ((+) means an increase of about 5% to 80%)
Rectal carcinoma cells
  increase in the activity of cytostatics: (++) ((++) means an increase of 80% to 500%)
[5]
  increase in the activity of cytostatics: (+) ((+) means an increase of about 5% to 80%)
Neuroglioma cell line H4
  increase in the activity of cytostatics: (+) ((+) means an increase of about 5% to 80%)

## CC[C@@H]1/C=C(\C)C[C@H](C)C[C@H](OC)[C@H]2O[C@@](O)(C(=O)C(=O)N3CCCC[C@H]3C(=O)O[C@H](/C(C)=C/[C@@H]3CC[C@@H](O)[C@H](OC)C3)[C@H](C)[C@@H](O)CC1=O)[C@H](C)C[C@@H]2OC [ascomycin]
[1]
  increase in the activity of cytostatics: (++) ((++) means an increase of 80% to 500%)
[2]
  increase in the activity of cytostatics: (+) ((+) means an increase of about 5% to 80%)
[3]
  increase in the activity of cytostatics: (+) ((+) means an increase of about 5% to 80%)
[4]
  increase in the activity of cytostatics: (+) ((+) means an increase of about 5% to 80%)
Rectal carcinoma cells
  increase in the activity of cytostatics: (+) ((+) means an increase of about 5% to 80%)
[5]
  increase in the activity of cytostatics: (+) ((+) means an increase of about 5% to 80%)

## CN1CCCC(n2nc(Cc3ccc(Cl)cc3)c3ccccc3c2=O)CC1 (centres unmarked) [azelastine]
[1]
  increase in the activity of cytostatics: (+) ((+) means an increase of about 5% to 80%)
[2]
  increase in the activity of cytostatics: (+) ((+) means an increase of about 5% to 80%)
Rectal carcinoma cells
  increase in the activity of cytostatics: (+) ((+) means an increase of about 5% to 80%)
[5]
  increase in the activity of cytostatics: (+) ((+) means an increase of about 5% to 80%)
Neuroglioma cell line H4
  increase in the activity of cytostatics: (+) ((+) means an increase of about 5% to 80%)

## Cn1c(CCCC(=O)O)nc2cc(N(CCCl)CCCl)ccc21 [bendamustine]
[1]
  increase in the activity of cytostatics: (+) ((+) means an increase of about 5% to 80%)
[2]
  increase in the activity of cytostatics: (+) ((+) means an increase of about 5% to 80%)
[4]
  increase in the activity of cytostatics: (+) ((+) means an increase of about 5% to 80%)
[5]
  increase in the activity of cytostatics: (+) ((+) means an increase of about 5% to 80%)

## CS(=O)(=O)OCCCCOS(C)(=O)=O [busulfan]
[1]
  increase in the activity of cytostatics: (+) ((+) means an increase of about 5% to 80%)
[3]
  increase in the activity of cytostatics: (+) ((+) means an increase of about 5% to 80%)
[4]
  increase in the activity of cytostatics: (++) ((++) means an increase of 80% to 500%)
[5]
  increase in the activity of cytostatics: (+) ((+) means an increase of about 5% to 80%)
Neuroglioma cell line H4
  increase in the activity of cytostatics: (+) ((+) means an increase of about 5% to 80%)

## O=NN(CCCl)C(=O)NCCCl [carmustine]
[1]
  increase in the activity of cytostatics: (+) ((+) means an increase of about 5% to 80%)
[2]
  increase in the activity of cytostatics: (+) ((+) means an increase of about 5% to 80%)
[3]
  increase in the activity of cytostatics: (+) ((+) means an increase of about 5% to 80%)
[4]
  increase in the activity of cytostatics: (++) ((++) means an increase of 80% to 500%)
Rectal carcinoma cells
  increase in the activity of cytostatics: (+) ((+) means an increase of about 5% to 80%)
[5]
  increase in the activity of cytostatics: (+) ((+) means an increase of about 5% to 80%)
Neuroglioma cell line H4
  increase in the activity of cytostatics: (+) ((+) means an increase of about 5% to 80%)

## COCc1c(C(C)C)nc(C(C)C)c(/C=C/[C@@H](O)C[C@@H](O)CC(=O)O)c1-c1ccc(F)cc1 [cerivastatin]
[1]
  increase in the activity of cytostatics: (+) ((+) means an increase of about 5% to 80%)
[2]
  increase in the activity of cytostatics: (+) ((+) means an increase of about 5% to 80%)
[3]
  increase in the activity of cytostatics: (+) ((+) means an increase of about 5% to 80%)
[4]
  increase in the activity of cytostatics: (+) ((+) means an increase of about 5% to 80%)
Rectal carcinoma cells
  increase in the activity of cytostatics: (++) ((++) means an increase of 80% to 500%)
[5]
  increase in the activity of cytostatics: (+) ((+) means an increase of about 5% to 80%)
Neuroglioma cell line H4
  increase in the activity of cytostatics: (+) ((+) means an increase of about 5% to 80%)

## O=C(O)CCCc1ccc(N(CCCl)CCCl)cc1 [chlorambucil]
[1]
  increase in the activity of cytostatics: (+) ((+) means an increase of about 5% to 80%)
[2]
  increase in the activity of cytostatics: (+) ((+) means an increase of about 5% to 80%)
[3]
  increase in the activity of cytostatics: (++) ((++) means an increase of 80% to 500%)
[4]
  increase in the activity of cytostatics: (+) ((+) means an increase of about 5% to 80%)
Rectal carcinoma cells
  increase in the activity of cytostatics: (+) ((+) means an increase of about 5% to 80%)
[5]
  increase in the activity of cytostatics: (+) ((+) means an increase of about 5% to 80%)
Neuroglioma cell line H4
  increase in the activity of cytostatics: (++) ((++) means an increase of 80% to 500%)

## N.N.[Cl][Pt][Cl] [cisplatin]
[1]
  increase in the activity of cytostatics: (+) ((+) means an increase of about 5% to 80%)
[2]
  increase in the activity of cytostatics: (+) ((+) means an increase of about 5% to 80%)
[3]
  increase in the activity of cytostatics: (+) ((+) means an increase of about 5% to 80%)
[4]
  increase in the activity of cytostatics: (++) ((++) means an increase of 80% to 500%)
Rectal carcinoma cells
  increase in the activity of cytostatics: (+) ((+) means an increase of about 5% to 80%)
[5]
  increase in the activity of cytostatics: (+) ((+) means an increase of about 5% to 80%)
Neuroglioma cell line H4
  increase in the activity of cytostatics: (++) ((++) means an increase of 80% to 500%)

## Nc1nc(Cl)nc2c1ncn2[C@H]1C[C@H](O)[C@@H](CO)O1 [cladribine]
[1]
  increase in the activity of cytostatics: (+) ((+) means an increase of about 5% to 80%)
[2]
  increase in the activity of cytostatics: (+) ((+) means an increase of about 5% to 80%)
[3]
  increase in the activity of cytostatics: (++) ((++) means an increase of 80% to 500%)
[4]
  increase in the activity of cytostatics: (++) ((++) means an increase of 80% to 500%)
[5]
  increase in the activity of cytostatics: (+) ((+) means an increase of about 5% to 80%)
Neuroglioma cell line H4
  increase in the activity of cytostatics: (+) ((+) means an increase of about 5% to 80%)

## O=C(O)Cc1ccccc1Nc1c(Cl)cccc1Cl [diclofenac]
[1]
  increase in the activity of cytostatics: (+) ((+) means an increase of about 5% to 80%)
[3]
  increase in the activity of cytostatics: (+) ((+) means an increase of about 5% to 80%)
[4]
  increase in the activity of cytostatics: (+) ((+) means an increase of about 5% to 80%)
Rectal carcinoma cells
  increase in the activity of cytostatics: (++) ((++) means an increase of 80% to 500%)
[5]
  increase in the activity of cytostatics: (+) ((+) means an increase of about 5% to 80%)
Neuroglioma cell line H4
  increase in the activity of cytostatics: (+) ((+) means an increase of about 5% to 80%)

## Nc1nc(O)c2ncn(COC(CO)CO)c2n1 [ganciclovir]
[1]
  increase in the activity of cytostatics: (++) ((++) means an increase of 80% to 500%)
[2]
  increase in the activity of cytostatics: (+) ((+) means an increase of about 5% to 80%)
[3]
  increase in the activity of cytostatics: (+) ((+) means an increase of about 5% to 80%)
[4]
  increase in the activity of cytostatics: (+) ((+) means an increase of about 5% to 80%)
Rectal carcinoma cells
  increase in the activity of cytostatics: (+) ((+) means an increase of about 5% to 80%)
[5]
  increase in the activity of cytostatics: (+) ((+) means an increase of about 5% to 80%)
Neuroglioma cell line H4
  increase in the activity of cytostatics: (+) ((+) means an increase of about 5% to 80%)

## COC(=O)C1=C(C)NC(C)=C(C(=O)OC)C1c1ccccc1[N+](=O)[O-] [nifedipine]
[1]
  increase in the activity of cytostatics: (+) ((+) means an increase of about 5% to 80%)
[2]
  increase in the activity of cytostatics: (+) ((+) means an increase of about 5% to 80%)
[3]
  increase in the activity of cytostatics: (+) ((+) means an increase of about 5% to 80%)
[4]
  increase in the activity of cytostatics: (+) ((+) means an increase of about 5% to 80%)
[5]
  increase in the activity of cytostatics: (+) ((+) means an increase of about 5% to 80%)
Neuroglioma cell line H4
  increase in the activity of cytostatics: (+) ((+) means an increase of about 5% to 80%)

## C=CC[C@@H]1/C=C(\C)C[C@H](C)C[C@H](OC)[C@H]2O[C@@](O)(C(=O)C(=O)N3CCCC[C@H]3C(=O)O[C@H](/C(C)=C/[C@@H]3CC[C@@H](O)[C@H](OC)C3)[C@H](C)[C@@H](O)CC1=O)[C@H](C)C[C@@H]2OC [tacrolimus]
[1]
  increase in the activity of cytostatics: (+) ((+) means an increase of about 5% to 80%)
[2]
  increase in the activity of cytostatics: (+) ((+) means an increase of about 5% to 80%)
[4]
  increase in the activity of cytostatics: (+) ((+) means an increase of about 5% to 80%)
Rectal carcinoma cells
  increase in the activity of cytostatics: (+) ((+) means an increase of about 5% to 80%)
[5]
  increase in the activity of cytostatics: (+) ((+) means an increase of about 5% to 80%)
Neuroglioma cell line H4
  increase in the activity of cytostatics: (++) ((++) means an increase of 80% to 500%)

## CC/C(=C(\c1ccccc1)c1ccc(OCCN(C)C)cc1)c1ccccc1 [tamoxifen]
[1]
  increase in the activity of cytostatics: (+) ((+) means an increase of about 5% to 80%)
[2]
  increase in the activity of cytostatics: (+) ((+) means an increase of about 5% to 80%)
[3]
  increase in the activity of cytostatics: (++) ((++) means an increase of 80% to 500%)
[4]
  increase in the activity of cytostatics: (+) ((+) means an increase of about 5% to 80%)
[5]
  increase in the activity of cytostatics: (+) ((+) means an increase of about 5% to 80%)
Neuroglioma cell line H4
  increase in the activity of cytostatics: (+) ((+) means an increase of about 5% to 80%)
